C[C@@H]1CC[C@@]2(OC1)O[C@H]1C[C@H]3[C@@H]4CC=C5C[C@@H](O)CC[C@]5(C)[C@H]4CC[C@]3(C)[C@H]1[C@@H]2C
in n-pentanol
Conditions	solubility (mole fraction)
293.2 K	0.00462
298.2 K	0.0051
303.2 K	0.00621
308.2 K	0.0075
313.2 K	0.00866
318.2 K	0.0102
323.2 K	0.0122
328.2 K	0.0148

C=C(C)[C@@H]1CC[C@]2(CO)CC[C@]3(C)[C@H](CC[C@@H]4[C@@]5(C)CC[C@H](O)C(C)(C)[C@@H]5CC[C@]43C)[C@@H]12
solubility (mole fraction)
Conditions	in DMF	in NMP	in acetonitrile	in n-dodecane	in n-hexadecane	in n-nonanol	in n-octanol	in n-pentanol	in sec-butanol	in water
293.2 K	0.00208	0.00549	0.000269	1.5e-05	4.6e-05	0.00217	0.0016	0.000894	0.000701	4e-06
298.2 K	0.00244	0.00569	0.000473	1.6e-05	5.3e-05	0.00234	0.00162	0.00096	0.000728	5e-06
303.2 K	0.00294	0.0059	0.000697	1.9e-05	5.7e-05	0.00254	0.00179	0.00108	0.000813	6e-06
308.2 K	0.00334	0.00615	0.00104	2.3e-05	6.5e-05	0.00292	0.00186	0.0012	0.000845	9e-06
313.2 K	0.00368	0.00635	0.00137	2.5e-05	7.6e-05	0.00324	0.00209	0.00132	0.000941	1.4e-05
318.2 K	0.00426	0.00653	0.00193	3e-05	8.3e-05	0.00371	0.00229	0.00149	0.00108	1.8e-05
323.2 K	0.00461	0.00676	0.00244	3.5e-05	9.8e-05	0.00431	0.00269	0.00175	0.0012	2.5e-05
328.2 K	0.00518	0.00697	0.00341	4.5e-05	0.000117	0.0051	0.00341	0.00198	0.00148	3.3e-05
